The values that follow are results of earlier work, collected in patent US20260256742A1, “ANDROGEN RECEPTOR ANTAGONISTS FOR THE TREATMENT OF PATIENTS WITH BIOCHEMICAL RECURRENCE OF HORMONE SENSITIVE PROSTATE CANCER” (BAYER CONSUMER CARE AG, priority 2023, published 2026).

The conditions of data set [1]: in vivo; cited from earlier work.
The conditions of data set [2]: single oral administration; cited from earlier work.
Another data set has as its system nmCRPC. The settings on record: in combination with ADT, patients with nmCRPC; cited from earlier work.
The target of a further data set is T878A AR mutant (Homo sapiens, UniProt P10275, T878A). The settings on record: cited from earlier work.
T878A AR mutant, sequence (P10275 whole entry T878A): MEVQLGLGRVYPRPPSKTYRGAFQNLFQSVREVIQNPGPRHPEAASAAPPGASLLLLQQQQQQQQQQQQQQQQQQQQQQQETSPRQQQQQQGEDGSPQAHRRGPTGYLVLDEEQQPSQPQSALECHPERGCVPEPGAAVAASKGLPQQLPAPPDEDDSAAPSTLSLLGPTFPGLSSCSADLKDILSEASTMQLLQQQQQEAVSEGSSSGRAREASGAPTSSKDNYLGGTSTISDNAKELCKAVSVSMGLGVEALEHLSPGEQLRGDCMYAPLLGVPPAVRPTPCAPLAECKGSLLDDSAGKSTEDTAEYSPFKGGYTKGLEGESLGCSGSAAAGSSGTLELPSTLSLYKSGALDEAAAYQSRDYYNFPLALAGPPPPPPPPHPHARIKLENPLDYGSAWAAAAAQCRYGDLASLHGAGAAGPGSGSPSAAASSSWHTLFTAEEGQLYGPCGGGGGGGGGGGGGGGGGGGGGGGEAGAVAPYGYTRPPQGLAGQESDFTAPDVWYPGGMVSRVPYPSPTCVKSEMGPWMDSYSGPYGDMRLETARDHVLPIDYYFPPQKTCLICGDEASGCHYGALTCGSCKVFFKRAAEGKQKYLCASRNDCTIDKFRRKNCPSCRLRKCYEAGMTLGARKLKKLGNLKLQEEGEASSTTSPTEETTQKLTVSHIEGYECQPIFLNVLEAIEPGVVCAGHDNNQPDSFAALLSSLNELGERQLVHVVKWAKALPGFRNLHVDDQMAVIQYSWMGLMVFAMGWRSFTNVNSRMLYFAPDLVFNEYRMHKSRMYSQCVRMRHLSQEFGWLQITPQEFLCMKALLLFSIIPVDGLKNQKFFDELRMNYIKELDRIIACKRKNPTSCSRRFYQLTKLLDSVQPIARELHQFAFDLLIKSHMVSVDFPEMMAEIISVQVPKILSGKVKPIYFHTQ

Turning to `CC(Cn1ccc(-c2ccc(C#N)c(Cl)c2)n1)NC(=O)c1cc(C(C)O)[nH]n1` (single isomer, unassigned) [(S,R) diastereoisomer], in data set [1], the “elimination compared with the other diastereoisomer” value is recorded as “faster elimination”.
For `CC(O)c1cc(C(=O)N[C@@H](C)Cn2ccc(-c3ccc(C#N)c(Cl)c3)n2)[nH]n1` (some centres unmarked) [[^14C]-darolutamide], in data set [2], the “exposure in prostate tissue” value is reported as “higher”; the tissue distribution entry is “wide and homogenous distribution in all tissues except the brain”.
With `CNC(=O)c1ccc(N2C(=S)N(c3cnc(C#N)c(C(F)(F)F)c3)C(=O)C23CCC3)cc1F` [apalutamide], in the data set with nmCRPC, the “metastatic free survival (MFS)” value is on record as “significantly increased” and the “overall survival (OS)” value is recorded as “significantly increased”.
As to `CNC(=O)c1ccc(N2C(=S)N(c3ccc(C#N)c(C(F)(F)F)c3)C(=O)C2(C)C)cc1F` [enzalutamide], in the data set with nmCRPC, the “metastatic free survival (MFS)” value is “significantly increased” and the “overall survival (OS)” value is recorded as “significantly increased”.
Turning to `CC(C)(O)C(=O)Nc1ccc([N+](=O)[O-])c(C(F)(F)F)c1` [hydroxyflutamide], the “action in T878A AR mutant” value on T878A AR mutant is “AR agonists”.
